Patent publication US4529602A, “Method for treatment or prophylaxis of gastro-intestinal disease” (priority 1981, dated 1985)
Structures can show the parent of a compound that is named as a salt.

Columns and labels:
[1] = test system: pepsin secretion; test: Preventive effect on pepsin secretion in pylorus-ligated rats; assay type: in vivo, Male SD-strain rats; details: 100 mg/kg oral, 5 h after administration
Method: (§1) Preventive effect on acid and pepsin secretions
(§2) Male SD-strain rats (6 to 7 weeks old) were starved for 48 hours, and then the pylori were ligated. Immediately after ligation, a solution or suspension of a test compound in distilled water was administered orally into the stomachs in an amount of 0.2 ml per 100 g of body weight (Dose: 100 mg/kg). Five hours after said administration of the test compound, the rats were sacrificed and the stomachs were removed. The gastric contents were centrifuged at 2,500 rpm for 10 minutes and the gastric juice was collected as the supernatant. The concentration of pepsin in the gastric juice was determined by Anson's method (c.f., J. Gen. Physiol., 22, pp. 77-89 (1938)) using hemoglobin as the substrate, and the preventive effect of the test compound on the pepsin secretion was estimated in terms of "decrease in pepsin concentration" according to the following formula: [formula]

[2] = test system: gastric acid secretion; test: Preventive effect on gastric acid secretion in pylorus-ligated rats; assay type: in vivo, Male SD-strain rats; details: 100 mg/kg oral, 5 h after administration
Method: as §1, §2
On the other hand, the concentration of free acid in the gastric juice was determined by titrating said gastric juice to pH 7.0 with 0.1N NaOH, and the preventive effect of the test compound on the gastric acid secretion was estimated in terms of "the decrease in acidity of gastric juice" according to the following formula: [formula] (Results)

[3] = test system: aspirin-induced ulcers; test: Effect on aspirin-induced ulcers; assay type: in vivo, Male Donryu-strain rats; details: aspirin 200 mg/kg
Method: Male Donryu-strain rats (8 to 9 weeks old) were starved overnight, and a solution or suspension of a test compound in distilled water was administered orally into the stomachs in an amount of one ml per 100 g of body weight. Half an hour later, a suspension of aspirin in 0.25% CMC solution was administered orally to the rats in an amount of 0.5 ml per 100 g of body weight (Dose: 200 mg/kg). Four hours after the administration of aspirin, the rats were sacrificed and the stomachs were removed and inflated by injecting 10 ml of 1% formalin solution to fix the inner layers of the gastric walls. The stomach was then incised along the greater curvature and the lengths of the lesions were measured and summated to give ulcer index (in mm) for each animal. The preventive effect of the test compound on aspirin-induced ulcers were calculated by the following formula: [formula] (Results)

CC(C)c1cc2c(cc1S(=O)(=O)O)[C@@]1(C)CCC[C@@](C)(C(=O)O)[C@@H]1CC2 [L-Asparagine salt, sulfodehydroabietic acid L-asparagine salt monohydrate]
Decrease (%) in pepsin concentration ([1]; monohydrate): 90%
Decrease (%) in acidity of gastric juice ([2]; monohydrate): 38%

CC(C)c1cc2c(cc1S(=O)(=O)O)[C@@]1(C)CCC[C@@](C)(C(=O)O)[C@@H]1CC2 [L-S--Methylmethionine salt, sulfodehydroabietic acid S-methyl-L-methionine salt dihydrate]
Decrease (%) in pepsin concentration ([1]; dihydrate): 84%
Preventive effect on aspirin-induced ulcers ([3]; p.o. 2 m mol./kg (1,086 mg/kg)): 85%

sulfodehydroabietic acid di(aluminum dihydroxide)salt dihydrate [2 Aluminum dihydroxide salt]
Decrease (%) in pepsin concentration [1]: 69%

CC(C)c1cc2c(cc1S(=O)(=O)O)[C@@]1(C)CCC[C@@](C)(C(=O)O)[C@@H]1CC2 [L-Glutamine salt, sulfodehydroabietic acid L-glutamine salt hemihydrate]
Decrease (%) in pepsin concentration ([1]; hemihydrate): 90%
Decrease (%) in acidity of gastric juice ([2]; hemihydrate): 39%

CC(C)c1cc2c(cc1S(=O)(=O)O)[C@@]1(C)CCC[C@@](C)(C(=O)O)[C@@H]1CC2 [Tetramethylenediamine salt, sulfodehydroabietic acid tetramethylenediamine salt hemihydrate]
Decrease (%) in pepsin concentration ([1]; hemihydrate): 84%
Decrease (%) in acidity of gastric juice ([2]; hemihydrate): 36%

CC(C)c1cc2c(cc1S(=O)(=O)O)[C@@]1(C)CCC[C@@](C)(C(=O)O)[C@@H]1CC2 [Ethylenediamine salt, sulfodehydroabietic acid ethylenediamine salt hemihydrate]
Decrease (%) in pepsin concentration ([1]; hemihydrate): 94%

CC(C)c1cc2c(cc1S(=O)(=O)O)[C@@]1(C)CCC[C@@](C)(C(=O)O)[C@@H]1CC2 [Hexamethylenediamine salt, sulfodehydroabietic acid hexamethylenediamine salt hemihydrate]
Decrease (%) in pepsin concentration ([1]; hemihydrate): 94%
Decrease (%) in acidity of gastric juice ([2]; hemihydrate): 32%

CC(C)c1cc2c(cc1S(=O)(=O)O)[C@@]1(C)CCC[C@@](C)(C(=O)O)[C@@H]1CC2 [Carnosine salt, sulfodehydroabietic acic carnosine salt monohydrate]
Decrease (%) in pepsin concentration ([1]; monohydrate): 72%
Preventive effect on aspirin-induced ulcers ([3]; p.o. 2 m mol./kg (1,248 mg/kg)): 33%

CC(C)c1cc2c(cc1S(=O)(=O)O)[C@@]1(C)CCC[C@@](C)(C(=O)O)[C@@H]1CC2 [2 Isopropylamine salt, sulfodehydroabietic acid di(isopropylamine)salt]
Decrease (%) in pepsin concentration [1]: 95%
Decrease (%) in acidity of gastric juice [2]: 40%

sulfodehydroabietic acid (aluminum monohydroxide) [Aluminum monohydroxide salt]
Decrease (%) in pepsin concentration [1]: 91%

CC(C)c1cc2c(cc1S(=O)(=O)O)[C@@]1(C)CCC[C@@](C)(C(=O)O)[C@@H]1CC2 [L-Lysine salt, sulfodehydroabietic acid L-lysine salt monohydrate]
Decrease (%) in pepsin concentration ([1]; monohydrate): 94%

CC(C)c1cc2c(cc1S(=O)(=O)O)[C@@]1(C)CCC[C@@](C)(C(=O)O)[C@@H]1CC2 [2/3 Aluminum salt, sulfodehydroabietic acid 2/3 aluminum ssalt 7/3 hydrate]
Decrease (%) in pepsin concentration ([1]; hydrate): 95%

CC(C)c1cc2c(cc1S(=O)(=O)O)[C@@]1(C)CCC[C@@](C)(C(=O)O)[C@@H]1CC2 [2 (2-Methoxyethyl)amine salt, sulfodehydroabietic acid di(2-methoxyethylamine)salt]
Decrease (%) in pepsin concentration [1]: 98%

CC(C)c1cc2c(cc1S(=O)(=O)O)[C@@]1(C)CCC[C@@](C)(C(=O)O)[C@@H]1CC2 [2 Cyclohexylamine salt, sulfodehydroabietic acid di(cyclohexylamine)salt]
Decrease (%) in pepsin concentration [1]: 71%

CC(C)c1cc2c(cc1S(=O)(=O)O)[C@@]1(C)CCC[C@@](C)(C(=O)O)[C@@H]1CC2 [L-Arginine salt, sulfodehydroabietic acid L-arginine salt hemihydrate]
Decrease (%) in pepsin concentration ([1]; hemihydrate): 77%

CC(C)c1cc2c(cc1S(=O)(=O)O)[C@@]1(C)CCC[C@@](C)(C(=O)O)[C@@H]1CC2 [2 Morpholine salt, sulfodehydroabietic acid dimorpholine salt hemihydrate]
Decrease (%) in pepsin concentration ([1]; hemihydrate): 92%

CC(C)c1cc2c(cc1S(=O)(=O)O)[C@@]1(C)CCC[C@@](C)(C(=O)O)[C@@H]1CC2 [2 (2-Dimethylaminoethyl)amine salt, sulfodehydroabietic acid di(2-dimethylaminoethylamine)salt monohydrate]
Decrease (%) in pepsin concentration ([1]; monohydrate): 92%
Decrease (%) in acidity of gastric juice ([2]; monohydrate): 31%
